#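 GI50 = concentration required for 50% inhibition of growth. Definition used: TGI = concentration required for complete inhibition of growth.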
# How the values were obtained:
# Assay in all cases: DTP human tumour cell line panel, 384-well format
# MDA-MB-435 melanoma = test system: MDA-MB-435 melanoma
# K-562 leukemia = test system: K-562 leukemia
# SK-OV-3 ovarian = test system: SK-OV-3 ovarian
# U251 glioblastoma = test system: U251 glioblastoma
# MCF7 breast = test system: MCF7 breast
# HOP-92 NSCLC = test system: HOP-92 NSCLC
# OVCAR-4 ovarian = test system: OVCAR-4 ovarian
# 786-0 renal = test system: 786-0 renal
# HCT-116 colon = test system: HCT-116 colon
# SNB-19 CNS = test system: SNB-19 CNS
# A498 renal = test system: A498 renal
# SR leukemia = test system: SR leukemia
# SK-MEL-5 melanoma = test system: SK-MEL-5 melanoma
# SN12C renal = test system: SN12C renal
# A549 NSCLC = test system: A549 NSCLC
# CAKI-1 renal = test system: CAKI-1 renal
# HCC-2998 colon = test system: HCC-2998 colon
# RXF 393 renal = test system: RXF 393 renal
# NCI-H460 NSCLC = test system: NCI-H460 NSCLC
# KM12 colon = test system: KM12 colon
# NCI-H522 lung = test system: NCI-H522 lung
# COLO 205 colon = test system: COLO 205 colon
# LOX IMVI melanoma = test system: LOX IMVI melanoma
# SK-MEL-28 melanoma = test system: SK-MEL-28 melanoma
# UACC-257 melanoma = test system: UACC-257 melanoma
# HT29 colon = test system: HT29 colon
# SW-620 colon = test system: SW-620 colon
# ACHN renal = test system: ACHN renal
# SF-539 CNS = test system: SF-539 CNS
# M14 melanoma = test system: M14 melanoma
# NCI-H226 lung = test system: NCI-H226 lung
# SF-295 CNS = test system: SF-295 CNS
# IGROV1 ovarian = test system: IGROV1 ovarian
# CCRF-CEM leukemia = test system: CCRF-CEM leukemia
# SK-MEL-2 melanoma = test system: SK-MEL-2 melanoma
# NCI/ADR-RES ovarian = test system: NCI/ADR-RES ovarian
# NCI-H322M lung = test system: NCI-H322M lung
# HOP-62 NSCLC = test system: HOP-62 NSCLC
# RPMI-8226 leukemia = test system: RPMI-8226 leukemia
# DU-145 prostate = test system: DU-145 prostate
# UO-31 renal = test system: UO-31 renal
# OVCAR-8 ovarian = test system: OVCAR-8 ovarian
# MOLT-4 leukemia = test system: MOLT-4 leukemia
# HL-60(TB) leukemia = test system: HL-60(TB) leukemia
# BT-549 breast = test system: BT-549 breast
# MDA-MB-468 breast = test system: MDA-MB-468 breast
# NCI-H23 lung = test system: NCI-H23 lung
# OVCAR-5 ovarian = test system: OVCAR-5 ovarian
# TK-10 renal = test system: TK-10 renal
# SF-268 CNS = test system: SF-268 CNS
# UACC-62 melanoma = test system: UACC-62 melanoma
# OVCAR-3 ovarian = test system: OVCAR-3 ovarian
# HCT-15 colon = test system: HCT-15 colon
# PC-3 prostate = test system: PC-3 prostate
# T-47D breast = test system: T-47D breast
# MDA-MB-231 breast = test system: MDA-MB-231 breast
smiles,measurement,setting,value
CNC(C)C(=O)N[C@H](C(=O)N1CCC[C@@H]1CN(CCc1ccccc1)C(=O)C(F)(F)F)[C@H](C)OCC#CC#CCO[C@H](C)[C@H](NC(=O)[C@H](C)NC)C(=O)N1CCC[C@H]1CN(CCc1ccccc1)C(=O)C(F)(F)F (some centres not stated),GI50,MDA-MB-435 melanoma,0.0981 µM
same,TGI,MDA-MB-435 melanoma,1.94 µM
same,GI50,K-562 leukemia,1.81 µM
same,TGI,K-562 leukemia,3.23 µM
same,GI50,SK-OV-3 ovarian,< 0.01 µM
same,TGI,SK-OV-3 ovarian,0.0719 µM
same,GI50,U251 glioblastoma,1.71 µM
same,TGI,U251 glioblastoma,3.1 µM
same,GI50,MCF7 breast,1.3 µM
same,TGI,MCF7 breast,2.59 µM
same,GI50,HOP-92 NSCLC,0.31 µM
same,TGI,HOP-92 NSCLC,1.78 µM
same,GI50,OVCAR-4 ovarian,< 0.01 µM
same,TGI,OVCAR-4 ovarian,< 0.01 µM
same,GI50,786-0 renal,1.76 µM
same,TGI,786-0 renal,3.16 µM
same,GI50,HCT-116 colon,1.92 µM
same,TGI,HCT-116 colon,3.35 µM
same,GI50,SNB-19 CNS,6.77 µM
same,TGI,SNB-19 CNS,21.4 µM
same,GI50,A498 renal,2.07 µM
same,TGI,A498 renal,4.56 µM
same,GI50,SR leukemia,0.342 µM
same,TGI,SR leukemia,1.96 µM
same,GI50,SK-MEL-5 melanoma,0.149 µM
same,TGI,SK-MEL-5 melanoma,0.73 µM
same,GI50,SN12C renal,2.34 µM
same,TGI,SN12C renal,4.06 µM
same,GI50,A549 NSCLC,3.32 µM
same,TGI,A549 NSCLC,17.2 µM
same,GI50,CAKI-1 renal,6.02 µM
same,TGI,CAKI-1 renal,17.7 µM
same,GI50,HCC-2998 colon,1.31 µM
same,TGI,HCC-2998 colon,2.62 µM
same,GI50,RXF 393 renal,< 0.01 µM
same,TGI,RXF 393 renal,0.0625 µM
same,GI50,NCI-H460 NSCLC,1.68 µM
same,TGI,NCI-H460 NSCLC,3.07 µM
same,GI50,KM12 colon,1.72 µM
same,TGI,KM12 colon,3.13 µM
same,GI50,NCI-H522 lung,0.906 µM
same,TGI,NCI-H522 lung,2.15 µM
same,GI50,COLO 205 colon,1.69 µM
same,TGI,COLO 205 colon,3.08 µM
same,GI50,LOX IMVI melanoma,2.06 µM
same,TGI,LOX IMVI melanoma,3.51 µM
same,GI50,SK-MEL-28 melanoma,1.45 µM
same,TGI,SK-MEL-28 melanoma,2.78 µM
same,GI50,UACC-257 melanoma,1.6 µM
same,TGI,UACC-257 melanoma,2.96 µM
same,GI50,HT29 colon,1.69 µM
same,TGI,HT29 colon,3.1 µM
same,GI50,SW-620 colon,1.82 µM
same,TGI,SW-620 colon,3.24 µM
same,GI50,ACHN renal,> 100 µM
same,TGI,ACHN renal,> 100 µM
same,GI50,SF-539 CNS,1.54 µM
same,TGI,SF-539 CNS,2.88 µM
same,GI50,M14 melanoma,1.8 µM
same,TGI,M14 melanoma,3.21 µM
same,GI50,NCI-H226 lung,3.39 µM
same,TGI,NCI-H226 lung,16.7 µM
same,GI50,SF-295 CNS,2.65 µM
same,TGI,SF-295 CNS,14.5 µM
same,GI50,IGROV1 ovarian,5.72 µM
same,TGI,IGROV1 ovarian,83.4 µM
same,GI50,CCRF-CEM leukemia,0.0253 µM
same,TGI,CCRF-CEM leukemia,1.43 µM
same,GI50,SK-MEL-2 melanoma,< 0.01 µM
same,TGI,SK-MEL-2 melanoma,< 0.01 µM
same,GI50,NCI/ADR-RES ovarian,> 100 µM
same,TGI,NCI/ADR-RES ovarian,> 100 µM
same,GI50,NCI-H322M lung,5.6 µM
same,TGI,NCI-H322M lung,22.7 µM
same,GI50,HOP-62 NSCLC,0.906 µM
same,TGI,HOP-62 NSCLC,2.19 µM
same,GI50,RPMI-8226 leukemia,0.617 µM
same,TGI,RPMI-8226 leukemia,1.94 µM
same,GI50,DU-145 prostate,1.74 µM
same,TGI,DU-145 prostate,5.18 µM
same,GI50,UO-31 renal,> 100 µM
same,TGI,UO-31 renal,> 100 µM
same,GI50,OVCAR-8 ovarian,1.05 µM
same,TGI,OVCAR-8 ovarian,2.24 µM
same,GI50,MOLT-4 leukemia,1.63 µM
same,TGI,MOLT-4 leukemia,2.99 µM
same,GI50,HL-60(TB) leukemia,< 0.01 µM
same,TGI,HL-60(TB) leukemia,< 0.01 µM
same,GI50,BT-549 breast,< 0.01 µM
same,TGI,BT-549 breast,2.16 µM
same,GI50,MDA-MB-468 breast,< 0.01 µM
same,TGI,MDA-MB-468 breast,0.0785 µM
same,GI50,NCI-H23 lung,0.268 µM
same,TGI,NCI-H23 lung,7.59 µM
same,GI50,OVCAR-5 ovarian,58.9 µM
same,TGI,OVCAR-5 ovarian,> 100 µM
same,GI50,TK-10 renal,2.52 µM
same,TGI,TK-10 renal,5.6 µM
same,GI50,SF-268 CNS,1.74 µM
same,TGI,SF-268 CNS,3.13 µM
same,GI50,UACC-62 melanoma,1.73 µM
same,TGI,UACC-62 melanoma,3.12 µM
same,GI50,OVCAR-3 ovarian,1.25 µM
same,TGI,OVCAR-3 ovarian,2.55 µM
same,GI50,HCT-15 colon,21.3 µM
same,TGI,HCT-15 colon,> 100 µM
same,GI50,PC-3 prostate,4.08 µM
same,TGI,PC-3 prostate,13.4 µM
same,GI50,T-47D breast,1.6 µM
same,TGI,T-47D breast,2.96 µM
same,GI50,MDA-MB-231 breast,< 0.01 µM
same,TGI,MDA-MB-231 breast,< 0.01 µM

# Source: PubChem BioAssay (NCI)
